Legend:
[1] = tested on: de novo hepatic cholesterol synthesis from 14C-acetate; assay: Acute rat cholesterol synthesis assay; assay type: in vivo; conditions: inhibition of cholesterol synthesis
Description: (b) Acute rat cholesterol synthesis assay.
This is an acute in vivo test in the rat to measure de novo hepatic cholesterol synthesis from exogenously administered ^14 C-acetate.
Female rats (35-55 g) are housed in reverse lighting conditions (red light from 0200 h-1400 h) for a period of about 2 weeks prior to test. Animals are allowed free access to chow and drinking water throughout this period. At test, animals should weigh 125-150 g.
Test compounds may be administered by oral gavage, dissolved or suspended in 0.5% polysorbate, or by ip or iv dosing. Control animals receive vehicle alone. After 1 hour the rats are injected ip with 25 μCi [2-^14 C]-acetate (NEN DUPONT. specific activity, 45-60 mCi/mmol NEC-085H, or AHERSHAM specific activity, 50-60 mCi/mmol CFA 14) in a volume of 0.25 ml saline (100 μCi/ml). After a further hour, rats are terminally anaesthetised with halothane and a blood sample obtained from the abdominal vena cava.
1 ml of plasma is lyophilised and then saponified in 2 ml ethanolic KOH (1 part 33% KOH, 9 parts ethanol) at 75° C. for 2 hours. After addition of an equal quantity of water, non-saponifiable lipids are extracted with two 5 ml volumes of hexane. The hexane extracts are evaporated to dryness and the residues dissolved in ethanol to determine cholesterol specific radioactivity. ED50 values can be determined in the standard way.

[2] = tested on: squalene synthase (rat liver microsomal protein); assay: Inhibition of Squalene synthase (formation of squalene from tritiated farnesyl pyrophosphate); assay type: biochemical; conditions: at 2.5 μM
Description: (a) Inhibition of Squalene synthase
In this test, the ability of a compound to prevent the formation of squalene from a radioactive substrate (tritiated farnesyl pyrophosphate) is assessed.
The test compound is incubated at a concentration of 25 micromolar in 200 μl of a buffered solution containing potassium phosphate (50 mM), MgCl2 (4.95 mM), KF (9.9 mM), NADPH (0.9 mM) and rat liver microsomal protein (20 μg). Rat liver microsomes are prepared by the method described in published European Patent Application No. 324,421 and stored in liquid nitrogen prior to assay. Assay vials are kept at 37° C. throughout the incubation.
The reaction is started with the addition of the substrate (1-[^3 H]-farnesyl pyrophosphate), final concentration 20 μM, and stopped after 15 minutes reaction time with the addition of 50 μl of 4% KOH. The reaction products are separated from unreacted substrate after application to a C-18 octadecyl 1 ccBond column (Analytichem Int product No. 617101). An aqueous fraction is eluted with 250 μl of 0.1M KOH. Squalene is then eluted with 1.0 ml 10% ethylacetate in hexane and radioactivity determined. The difference in radioactivity in the presence and absence of the test compound is used to determine the level of inhibition. […] The IC50 can then be determined from a plot of percentage inhibition against concentration of test compound.

COCCOc1cc(C)c(C#CC2(O)CN3CCC2CC3)c(C)c1 (centres unmarked) [Example 16]
ED50 [1]: ~5.1 mg/kg | inhibition of squalene synthase [2]: about 80%
